What was measured:
[1] = Fluorescence quantum yields in solvents, UV one-photon excitation; type: physicochemical; details: 20° C., 290-300 nm excitation
Procedure: Absorption spectra were measured in either a Perkin Elmer Lambda 25 or 950 spectrophotometer. Fluorescence measurements were made with either a Spex Fluoromax or Varian Cary Eclipse spectrofluorimeter using the spectral correction curves supplied by the manufacturers. Fluorescence quantum yields with UV (one-photon) excitation were determined using either 2-aminopyridine (Φref 0.6 [7]) or 9-chloroanthracene (Φref 0.50 in dichloromethane, determined here relative to 9,10-diphenylanthracene in cyclohexane (Φref 0.97) and anthracene in ethanol (Φref 0.28 [8]) as standards. Fluorescence quantum yields were determined from the relative slopes of plots of integrated fluorescence intensity versus (1-10^−A) for samples having absorbance A≦0.1. The square of the refractive index (n^2) correction was applied when sample and reference compounds were in different solvents. Irradiation of the samples was minimized by the use of narrow excitation slits to reduce simultaneous photoisomerization.
The fluorescence quantum yields for E-CA4F were generally somewhat higher than for E-CA4.

HeLa cells = test: Fluorescence lifetime imaging (FLIM) of uptake and intracellular concentration in HeLa cells; details: HeLa cells, 100 μM added
Procedure: Both HeLa and Chinese hamster ovary (CHO) cells were obtained from the European Collection of Cell Cultures. HeLa cells were cultured in MEM medium (Gibco) containing 10% foetal calf serum, penicillin (100 units/mL), streptomycin (100 μg/mL) and glutamine (2 mM). CHO cells were cultured in DMEM (Gibco) with the same additions as for the HeLa cells. For microscopy the adherent cell cultures were grown in 35 mm diameter glass-bottom culture dishes with optical quality glass (MatTek Corporation) and incubated at 37° C. in a humidified atmosphere containing 5% CO2. Human umbilical vein endothelial cells (HUVECs) were obtained from TCS Cellworks. HUVECs were sub-cultured in basal medium (TCS Cellworks) supplemented with antibiotic supplement/amphotericin-B, following the detailed guidelines provided by TCS Cellworks.
The fluorescence lifetime imaging system with multiphoton excitation employed lasers for multiphoton excitation consisting of a Ti:Sapphire laser, tuneable between 700 and 1000 nm and providing ca 180 fs pulses at 76 MHz, and an optical parametric oscillator (OPO) pumped by a second Ti:Sapphire laser source. Using the doubled idler output of the OPO, useful energies (>200 mW) could be obtained between 550 and 640 nm. Samples were excited on the stage of Nikon TE2000U inverted microscope using a water immersion ×60 objective of NA 1.2. Using the various microscope ports it was possible to record the fluorescence in a number of ways. The fluorescence signal at one port was relayed to a spectrometer (Acton 275) and CCD setup (Andor iDUS) so that emission spectra and intensities could be recorded. Alternatively the fluorescence signal could be routed via a second port to a time-correlated single photon counting (TCSPC) system (Becker and Hickl SPC-830) allowing fluorescence lifetime measurements and fluorescence lifetime imaging (FLIM), using Becker and Hickl software (SPCImage) for analysis. In FLIM mode the fluorescence was isolated by a suitable narrowband interference filter (400IU25 together with BG3 (Comar)). […] Two photon cross sections were determined using a reference fluorophore as a two photon standard as described by Mathai et al., employing published values of the two-photon cross section for 9-chloroanthracene.
Images of intracellular distribution of E-combretastatins in cell monolayers were obtained using fluorescence lifetime imaging, in which the rastered excitation laser beam dwells on each pixel for a few milliseconds and at each position records a nanosecond fluorescence lifetime decay curve using the time-correlated single photon counting method. […]
Quantification of fluorophore concentration from intensity measurements is often difficult.

[2] = room temperature, approximately 10 minutes

COc1ccc(/C=C/c2cc(OC)c(OC)c(OC)c2)cc1O [E-CA4, (E)-1-(3′,4′,5′-Trimethoxyphenyl)-2-(4″-methoxy-3″-hydroxy-phenyl)ethene]
Fluorescence quantum yield φ ([1]; DCM): 0.19 | Fluorescence quantum yield φ ([1]; DMSO): 0.15 | Fluorescence quantum yield φ ([1]; EtOH): 0.093 | Fluorescence quantum yield φ ([1]; Ethylene glycol): 0.19 | Fluorescence quantum yield φ ([1]; Glycerol): 0.35 | Fluorescence quantum yield φ ([1]; Hexane): 0.36 | Fluorescence quantum yield φ ([1]; MeCN): 0.099 | Fluorescence quantum yield φ ([1]; MeOH): 0.071 | Intracellular concentration as times the concentration in the medium (HeLa cells): 20-40 times | Intracellular concentration, smaller regions (HeLa cells; [2]): > 4 mM | Intracellular concentration, substantial regions of the cell cytoplasm (HeLa cells; [2]): > 2 mM
